In patent US6025491A, “Water soluble onium salt of taxo-diterpenoid” (The Scripps Research Institute, priority 1998, dated 2000):
Where a name gives a salt, the structure may show the parent alone. Read-outs that look alike come from different tables or passages of the source. Values belong to the molecule of their own block, whether it stands above or below them.

Experiments:
human leukemia [1] = tested on: human leukemia
[2] = taxol release / breakdown of taxol-2'-MPT in plasma; type: in vitro ADME, human
Procedure: (§1) Due to a difference in retention time using our standard HPLC conditions (see FIG. 1) and differing ultraviolet absorption maxima (1280 /1254 =1.6 for 2 and 0.3 for 1), the stability of 2 was easily assayed by HPLC (FIG. 1). […] In phosphate buffered saline (PBS) or ammonium acetate--phosphate buffer systems of pH 6.0 to 7.3, 2 is stable at 25° C. for over 21 days. Taxol-2'-MPT (2) is, however, unstable in 5% HCl (pH 1.1) and brine.
(§2) Under these conditions 20% of total is recovered. More particularly, Taxol-2'-MPT (2) was dissolved in the aqueous system with the aid of sonication for five minutes. Aliquots were then removed at the times shown and partitioned into methylene chloride to quench the reaction. Samples were then analyzed using a Waters Maxima HPLC instrument equipped with an autoinjector (3.9×300 mm C18 column equipped with a precolumn. The flow rate was 1.5 mL/minute. The eluent gradient A-B extended over 30 minutes. "A" was 80% 80 mM ammonium acetate, pH 6.0. "B" was 100% methanol. An ultraviolet diode array detector was employed. The ratio of compound 2 (Rf 16.2 min.) to taxol (compound 1, Rf 16.8 min.) remaining was determined from the relative areas of the peaks after normalization with previously determined calibration curves.

[3] = self-assembly: optical density at 340 nm and transmission electron microscopy; type: physicochemical
From the text: Transmission electron microscopy (TEM) confirmed the presence of supramolecular structures in these solutions. […] It is likely that the long term stability of these solutions is due, at least in part, to stabilization provided by this structured environment.

serum protein = test: displacement of MPT group by serum protein, dialysis of protein:taxol intermediate; type: in vitro ADME; conditions: contacted with serum protein
[4] = stability measurements by HPLC (solid state and aqueous media); type: physicochemical; conditions: for stability duration: pH 6.0 to 7.3, 25° C.
Procedure: as §1, §2

cervical carcinoma [5] = tested on: cervical carcinoma
non-serum proteins = test: displacement of MPT group by non-serum proteins; type: in vitro ADME; conditions: tested non-serum proteins
From the text: (§3) However, the release of taxol from taxol-2'-MPT can also be catalyzed by serum protein and by proteins having nucleophilic groups. […] Dialysis of the protein:taxol intermediate indicates a dissociation period of hours or days. Displacement of the MPT group by serum proteins seems to be specific for such serum proteins. […] The precise nature of the bonding between the protein and taxol has not been characterized. Scheme 2 illustrates alternative pathways for MPT release.

[6] = Procedure: The solubility and partition coefficient data for 2 and taxol were determined using an HPLC method.
Solubility was found by forming a solution in water with the aid of sonication for five minutes, centrifugation of the samples, and injection of the supernatant. The values reported were normalized using calibration curves constructed for both compounds by preparing known concentrations in the range 1×10^-6 to 1×10^-3 M in methylene chloride and subjecting to HPLC analysis under the same conditions. […] Partition coefficients were determined by dissolving the compound in the organic phase, shaking the resulting solution with water for ten minutes, and analyzing each phase by HPLC as above.

serum albumen = test: displacement of MPT group by serum albumen; type: in vitro ADME
From the text: as §3

metastatic melanoma [7] = tested on: metastatic melanoma
tubulin = test: microtubule (tubulin) polymerization-depolymerization measurements; type: biochemical; conditions: for suppression of calcium chloride promoted depolymerization: 10^-6 M drug, 0.25 mM CaCl2, OD 340 nm; for suppression of calcium chloride promoted depolymerization / microtubule polymerization-depolymerization: tubulin 1.0 mg/mL; for microtubule polymerization-depolymerization: 10^-6 drug, 1.0 mM GTP, 0.25 mM CaCl2, 37° C.
Procedure: Tubulin polymerization-depolymerization measurements are illustrate in FIG. 3. Negative controls are shown with triangles; positive taxol controls are shown with diamonds; and taxol-2'-MPT, i.e., compound 2 is shown with dots.
More particularly, measurement were performed in 96 well plates at 37° C. following the protocol of R. Merlock and W. Wrasidlo (Analytical Biochemistry 1993, in press). Calcium chloride addition is indicated by the arrow. In each case, 1.0 mM GTP was used to promote the initial polymerization of tubulin. Negative control employed tubulin (1.0 mg/mL) alone, CaCl2 (0.25 mM) added after 20 minutes. Positive taxol control employed tubulin (1.0 mg/mL) with taxol (10^-6 M) and CaCl2 (0.25 mM) added after 20 minutes. The experimental taxol-2'-MPTemployed tubulin (1.0 mg/mL) with taxol-2'-MPT (10^-6) and CaCl2 (0.25 mM) added after 20 minutes. Turbidity was measured as optical density at 340 nm using a microplate reader (Molecular Devices Thermomax).

immunoglobulins = test: displacement of MPT group by immunoglobulins; type: in vitro ADME
From the text: as §3

[8] = tested on: A549 non-small cell lung adenocarcinoma xenograft; test: efficacy in lung tumor xenograft nude mouse model; type: in vivo, nude mice (human lung carcinoma xenografts); conditions: I.P. day 1, 3 and 7; taxol 18.0 mg/kg in Cremaphor/D5W; 2 at 23.9 mg/kg
[9] = kinetics of taxol release from taxol-2'-MPT in aqueous solutions; type: physicochemical; conditions: 25° C.; for taxol release: over 11 minutes
Procedure: as §2

human leukemia [10] = test: cytotoxicity (XTT), human leukemia
[11] = background statement; cited from earlier work
cervical carcinoma [12] = test: cytotoxicity (XTT), cervical carcinoma
metastatic melanoma [13] = test: cytotoxicity (XTT), metastatic melanoma
[14] = formulated in Cremaphor (polyoxyethylated castor oil) and ethanol; cited from earlier work

breakdown in human plasma ([2]; incubated at 37° C. with human plasma): breaks down rapidly
time to complete conversion of 2 into taxol ([2]; plasma, methylene chloride extraction, 25° C.): ≤ 10 min
taxol discharge in sera ([2]; sera): rapidly discharges taxol in sera
critical concentration for exponential increase in optical density (critical aggregation concentration) ([3]; OD 340 nm, buffered solutions): 400 µM
diameter of fibrillar aggregates ([3]; TEM, fibrillar structure): ca. 80 Å
helical twist of fibrillar aggregates ([3]; TEM, fibrillar structure): about 7
length of fibrillar aggregates ([3]; TEM, fibrillar structure): up to 800 Å
diameter of spherical structures ([3]; TEM, freshly sonicated solutions): about 50 Å
concentration above which haze and diffuse light scattering appear ([3]; buffered solutions): greater than 1×10^-3 M
appearance of water solutions ([3]; water, all concentrations examined): optically clear
stability ([4]; 5% HCl (pH 1.1)): unstable
stability duration ([4]; ammonium acetate--phosphate buffer systems): over 21 days
stability ([4]; aqueous media at physiological pH and ion strength): essentially completely stable
stability ([4]; brine): unstable
stability, onset of slow degradation ([4]; in 1.5% saline): > 4 days
stability, onset of slow degradation ([4]; in 5% dextrose): > 4 days
stability, onset of slow degradation ([4]; in water): > 4 days
stability duration ([4]; phosphate buffered saline (PBS)): over 21 days
activity in displacing the MPT group (non-serum proteins): seemed to lack this activity
effectiveness in displacing the MPT group (serum albumen): particularly effective
effectiveness in displacing the MPT group (immunoglobulins): particularly effective
taxol release ([9]; 5% dextrose): no taxol release is observed
taxol release ([9]; pH 6.2 phosphate buffered saline): no taxol release is observed
taxol release ([9]; sterile water): no taxol release is observed
Structure (SMILES): CC(=O)O[C@H]1C(=O)[C@@]2(C)[C@H]([C@H](OC(=O)c3ccccc3)[C@]3(O)C[C@H](OC(=O)[C@H](Oc4cccc[n+]4C)[C@@H](NC(=O)c4ccccc4)c4ccccc4)C(C)=C1C3(C)C)[C@]1(OC(C)=O)CO[C@@H]1C[C@@H]2O [taxol-2'-MPT, Taxol-2'-MPT (methylpyridinium tosylate)]
cytotoxicity level (human leukemia [1]): Extremely high
reaction with serum protein (serum protein): observed to displace its MPT group and form a protein:taxol intermediate
cytotoxicity level (cervical carcinoma [5]): Extremely high
solubility in water compared with taxol [6]: significantly more soluble in water than the parent taxol
cytotoxicity level (metastatic melanoma [7]): Extremely high
suppression of calcium chloride promoted depolymerization (tubulin): not by taxol-2'-MPT
microtubule polymerization-depolymerization (tubulin; listed as 2): does not affect the tubulin-microtubule equilibria
microtubule polymerization-depolymerization (tubulin; listed as taxol-2'-MPT (2)): very similar to GTP-saline controls and drastically different from taxol
binding to tubulin in the manner of taxol (tubulin; buffered aqueous environment): does not appear to bind to tubulin in the manner of taxol
control of tumor growth compared with taxol [8]: at least comparable to that of taxol
stability in water and aqueous buffer solutions [9]: stable in water and aqueous buffer solutions

Structure (SMILES): CC(=O)O[C@H]1C(=O)[C@@]2(C)[C@H]([C@H](OC(=O)c3ccccc3)[C@]3(O)C[C@H](OC(=O)[C@H](O)[C@@H](NC(=O)c4ccccc4)c4ccccc4)C(C)=C1C3(C)C)[C@]1(OC(C)=O)CO[C@@H]1C[C@@H]2O [taxol]
Partition Coefficient [octanol]/[water] [6]: > 10000
Solubility in Water ([6]; water): < 1.5 µM
cytotoxicity level (human leukemia [10]): Extremely high
suppression of calcium chloride promoted depolymerization (tubulin): suppressed by taxol
microtubule stabilization by taxol recovered from plasma treated with 2 (tubulin; taxol recovered from human plasma treated with 2): exhibited the expected microtubule stabilization
water solubility [11]: less than 1.5×10^-6 M
cytotoxicity level (cervical carcinoma [12]): Extremely high
cytotoxicity level (metastatic melanoma [13]): Extremely high
side effects of formulation [14]: hypersensitivity reactions
